Source: patent publication US9073882B2, “Inhibitors of the renal outer medullary potassium channel” (Merck Sharp & Dohme Corp., priority 2010, dated 2015)
Where two headings read alike, the source gives them in different places.

Columns and labels:
[1] = target: hROMK1 (Kir1.1) (Homo sapiens (Human), UniProt P48048); experiment: ^86Rb^+ Efflux Assay; format: cell-based; settings: CHO-DHFR- cells stably expressing hROMK1 (Kir1.1)
[2] = target: hROMK (hKir1.1) (Homo sapiens (Human), UniProt P48048); experiment: Thallium Flux Assay; format: cell-based; settings: Table 2; HEK293 cells stably expressing hROMK (hKir1.1)
[3] = value in parentheses at the end of each Example, read-out: IC50 in the ^86Rb^+ Efflux Assay
[4] = Table 1, read-out: ^86Rb^+ Efflux Assay IC50

Sequence of hROMK (hKir1.1) (P48048 whole entry): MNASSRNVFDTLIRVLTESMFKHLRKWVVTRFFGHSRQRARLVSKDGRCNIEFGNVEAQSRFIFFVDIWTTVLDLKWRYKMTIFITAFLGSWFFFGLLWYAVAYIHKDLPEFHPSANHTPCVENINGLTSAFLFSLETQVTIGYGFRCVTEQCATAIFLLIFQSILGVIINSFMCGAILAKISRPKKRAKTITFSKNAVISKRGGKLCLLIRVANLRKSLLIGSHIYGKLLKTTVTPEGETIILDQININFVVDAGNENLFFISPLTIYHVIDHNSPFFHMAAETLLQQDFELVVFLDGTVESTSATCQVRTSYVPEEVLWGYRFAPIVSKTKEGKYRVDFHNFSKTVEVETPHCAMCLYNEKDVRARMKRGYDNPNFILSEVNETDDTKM
Sequence of hROMK1 (Kir1.1) (P48048 whole entry): as above

IC50 [1, 3] [nM]	IC50 [2] [nM]	IC50 [1, 4] [nM]	Structure (SMILES)
78	17	–	Cc1c(CCN2CCN(CCc3ccc(C#N)c(F)c3Cl)CC2)ccc2c1COC2=O [Example 86, 3-Chloro-2-fluoro-4-(2-{4-[2-(4-methyl-1-oxo-1,3-dihydro-2-benzofuran-5-yl)ethyl]piperazin-1-yl}ethyl)benzonitrile]
35	–	–	Cc1c(CCN2CCN(CCc3ccc(C#N)c(Cl)c3)CC2)ccc2c1COC2=O [Example 71, 2-Chloro-4-(2-{4-[2-(4-methyl-1-oxo-1,3-dihydro-2-benzofuran-5-yl)ethyl]piperazin-1-yl}ethyl)benzonitrile]
34	12	34	Cc1c(CCN2CCN(CC(C)c3ccc4c(c3C)COC4=O)CC2)ccc2c1COC2=O (stereo not shown) [Example 94, 4-Methyl-5-(1-(4-(2-(4-methyl-1-oxo-1,3-dihydroisobenzofuran-5-yl)ethyl)piperazin-1-yl)propan-2-yl)isobenzofuran-1(3H)-one]
200	–	–	Cc1c(CCN2CCN(CCc3ccc(C#N)c(OC(F)(F)F)c3)CC2)ccc2c1COC2=O [Example 69, 2-Trifluoromethoxy-4-(2-{4-[2-(4-methyl-1-oxo-1,3-dihydro-2-benzofuran-5-yl)ethyl]piperazin-1-yl}ethyl)benzonitrile]
94	–	–	COc1cc(CCN2CCN(CCc3ccc4c(c3)COC4=O)CC2)c(Cl)cc1C#N [Example 61, 5-Chloro-2-methoxy-4-(2-{4-[2-(1-oxo-1,3-dihydro-2-benzofuran-5-yl)ethyl]piperazin-1-yl}ethyl)benzonitrile]
230	–	–	Cc1c(CCN2CCN(CCc3c(F)cc(C#N)c(F)c3F)CC2)ccc2c1COC2=O [Example 75, 2,3,5-Trifluoro-4-(2-{4-[2-(4-methyl-1-oxo-1,3-dihydro-2-benzofuran-5-yl)ethyl]piperazin-1-yl}ethyl)benzonitrile]
50	–	–	N#Cc1ccc2c(c1)CCC(N1CCN(CCc3ccc4c(c3)COC4=O)CC1)C2 (stereo not shown) [Example 66, 6-{4-[2-(1-Oxo-1,3-dihydro-2-benzofuran-5-yl)ethyl]piperazin-1-yl}-5,6,7,8-tetrahydronaphthalene-2-carbonitrile]

The next lines start with the molecule.

Structure (SMILES)	IC50 [1, 3] [nM]	IC50 [2] [nM]	IC50 [1, 4] [nM]
C[C@H]1Cc2cc(CCN3CCN(CCc4ccc5c(c4)C[C@H](C)OC5=O)CC3)ccc2C(=O)O1 [Example 58, (3S,3′S)-6,6′-(Piperazine-1,4-diyldiethane-2,1-diyl)bis(3-methyl-3,4-dihydro-1H-isochromen-1-one)]	650	240	–
Cc1c(CCN2CCN(CCc3ccc(C#N)c(OC(F)F)c3)CC2)ccc2c1COC2=O [Example 49, 2-(Difluoromethoxy)-4-[2-[4-[2-(4-methyl-1-oxo-3H-isobenzofuran-5-yl)ethyl]piperazin-1-yl]ethyl]benzonitrile]	160	–	–
N#Cc1ccc2c(c1)CCC(N1CCN(CCc3ccc([N+](=O)[O-])cc3)CC1)C2 (stereo not shown) [Example 3, 6-{4-[2-(4-Nitrophenyl)ethyl]piperazin-1yl}-5,6,7,8-tetrahydronaphthalene-2-carbonitrile]	50	–	–
N#Cc1ccc2c(c1)CC[C@@H](N1CCN(CCc3ccc([N+](=O)[O-])cc3)CC1)C2 [Example 26, (6R)-6-{4-[2-(4-Nitrophenyl)ethyl]piperazin-1-yl}-5,6,7,8-tetrahydronaphthalene-2-carbonitrile]	66	–	66
Cc1c(CCN2CCN(CCc3ccc4c(c3C)COC4=O)CC2)ccc2c1COC2=O [Example 59, 5,5′-(Piperazine-1,4-diyldiethane-2,1-diyl)bis(4-methyl-2-benzofuran-1(3H)-one)]	76	–	76
Cc1c(CCN2CCN(CCc3ccc(-n4cnnn4)nc3)CC2)ccc2c1COC2=O [Example 43, 4-Methyl-5-[2-[4-[2-[6-(tetrazol-1-yl)-3-pyridyl]ethyl]piperazin-1-yl]ethyl]-3H-isobenzofuran-1-one]	610	–	620
COc1cc(CCN2CCN(CCc3ccc4c(c3)COC4=O)CC2C(F)(F)F)ccc1C#N (stereo not shown) [Example 56, 2-Methoxy-4-(2-{4-[2-(1-oxo-1,3-dihydro-2-benzofuran-5-yl)ethyl]-2-(trifluoromethyl)piperazin-1-yl}ethyl)benzonitrile]	270	–	270
